Results published in paper PMC8311651, “Controlling Intramolecular Interactions in the Design of Selective, High-Affinity Ligands for the CREBBP Bromodomain” (Journal of Medicinal Chemistry, 2021).
Several values for one entry are separate records, joined by “and”; a condition that tells them apart may be missing. Equal values may be shown once. Read-outs that look alike come from different tables or passages of the source.

What was measured:
HIF-1α in HCT116 cells = test: HIF-1α level in HCT116 cells in hypoxia (Western blot); assay type: cell-based, human; conditions: HCT116, 10 μM, hypoxia (<0.1% O2)
CREBBP bromodomain [1] = target: T1, CREBBP bromodomain (Homo sapiens, UniProt Q92793); test: BROMOscan (bromoKdELECT), CREBBP; assay type: binding; conditions: concentrations of up to 1 μM
Description: (§1) Figure 7 Representation of the bromoKdELECT data for (A) compound 2 and (B) compound 3. Using the BROMOscan platform, Kd values were determined for 12 phylogenetically diverse bromodomains (ATAD2B, BRD2(1), BRD4(1), BRD7, BRD9, BRPF1, CREBBP, EP300, PCAF, SMARCA4, TAF1(2), and TRIM24).
Target sequence in this assay (Q92793 1085-1192 limits assumed): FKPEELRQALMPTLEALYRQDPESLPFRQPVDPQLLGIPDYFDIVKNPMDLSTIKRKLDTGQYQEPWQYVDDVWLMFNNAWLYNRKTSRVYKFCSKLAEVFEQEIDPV

[2] = test system: ATAD2B, BRD2(1), BRD4(1), BRD7, BRD9, BRPF1, PCAF, SMARCA4, TAF1(2), TRIM24 bromodomains; test: BROMOscan (bromoKdELECT), other bromodomains of the panel; assay type: binding; conditions: concentrations of up to 1 μM
Description: as §1

BRD4(1) [3] = target: T2, BRD4(1) (Homo sapiens, UniProt O60885); test: Isothermal titration calorimetry (ITC), BRD4(1); assay type: binding
Description: (§2) Isothermal Titration Calorimetry. All calorimetric experiments were performed on a MicroCal iTC200 or MicroCal PEAQ-ITC Automated (Malvern) and analyzed with the MicroCal PEAQ-ITC Analysis software (Malvern 1.1.0.1262) using a single binding site model, with the N number set to 1. The first data point was excluded from the analysis.
(§3) BRD4(1) and CREBBP bromodomains were dialyzed at 4 °C overnight in a Slide-A-Lyzer® MINI Dialysis Device (2000 MWCO; Thermo Scientific Life Technologies) into 50 mM HEPES, 150 mM NaCl containing 0.2% DMSO; pH 7.4. Proteins were centrifuged to remove […]
(§4) Protein concentration were determined by measuring
(§5) Technologies Inc.) by using the predicted protein absorbance (CREBBP: ε280: […]
(§6) dissolved as 10 to 50 mM DMSO stock solution and diluted to the required concentration using dialysis buffer. The cell was stirred at 750 rpm, reference power set to 5 μcal/sec and temperature held at 25 °C. After an initial delay of 60 sec, 20 × 2 μL injections (first injection 0.4 μL) were performed with a spacing of 150 sec. Heated dilutions were measured under the same conditions and subtracted for analysis. Small molecule solutions in the calorimetric

H3K18Ac in HCT116 cells = test: H3K18 acetylation in HCT116 cells (Western blot); assay type: cell-based, human; conditions: HCT116, 10 μM
Description: (§7) (A) HCT116 cells were exposed to 2 (10 μM) for the times shown. Western blots were then carried out for the proteins indicated. β-Actin is included as a loading control. (B) HCT116 cells were exposed to 2 (10 μM) for the times indicated followed by mRNA preparation. Q-PCR was then carried out to determine c-Myc mRNA levels compared to the 18S. Data were analyzed using one-way ANOVA. *P < 0.05, **P < 0.01, ***P < 0.001. […] (E) HCT116 cells were exposed to 2 (10 μM) or I-CBP112 for the times indicated.
(§8) overnight. Following compound treatment, cells were collected and lysed in urea buffer (9 M
(§9) urea, 75 mM Tris-HCl pH 7.5, 0.15 M β-mercaptoethanol). Proteins (50 µg) were separated
(§10) by gel electrophoresis on a 4-20% Tris-glycine gel and subjected to immunoblotting. The
(§11) 15, Santa Cruz). Secondary antibodies IRDye® 680RD Goat anti-Mouse IgG (H+L) and
(§12) IRDye® 680RD Goat anti-Rabbit IgG (H+L) were from LI-COR Biosciences. The Odyssey
(§13) infrared system (LI-COR) was used to image Western blots. […]
(§14) c-MYC For: […], c-MYC Rev: […],
(§15) 18S For: […], 18S Rev: […]. […]

BRD4(1) [4] = target: T2, BRD4(1); conditions: read-out: BRD4(1) Kd (NMR); ligand-observed 1H NMR, estimated Kd
CREBBP bromodomain [5] = target: T1, CREBBP bromodomain; test: Isothermal titration calorimetry (ITC), CREBBP bromodomain; assay type: binding
Description: Figure S11. The isothermal titration calorimetry (ITC) data for the compounds shown, measured for the CREBBP bromodomain.
as §2, §3, §4, §5, §6
Target sequence in this assay (Q92793 1081-1197): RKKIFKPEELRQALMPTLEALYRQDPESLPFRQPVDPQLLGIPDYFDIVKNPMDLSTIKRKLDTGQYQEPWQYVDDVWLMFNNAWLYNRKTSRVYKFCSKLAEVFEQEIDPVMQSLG

EP300 bromodomain = target: T3, EP300 bromodomain (Homo sapiens, UniProt Q09472); test: BROMOscan (bromoKdELECT), EP300; assay type: binding; conditions: concentrations of up to 1 μM
T3 sequence (Q09472 1049-1156 limits assumed): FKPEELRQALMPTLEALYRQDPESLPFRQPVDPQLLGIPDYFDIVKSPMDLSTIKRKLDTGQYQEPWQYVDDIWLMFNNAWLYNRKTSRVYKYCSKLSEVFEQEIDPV
Description: as §1

[6] = test system: c-Myc mRNA in HCT116 cells; test: c-Myc mRNA level in HCT116 cells (Q-PCR); assay type: cell-based, human; conditions: HCT116, 10 μM, Q-PCR vs 18S
Description: as §7, with “times indicated. […]” for “times indicated.”
Petri dishes overnight. Following compound treatment, cells were collected, and RNA was
isolated using TRIzol (Invitrogen/Life Technologies) according to the manufacturer’s
instructions. For qPCR expression analysis, cDNA was reverse transcribed from total RNA
using the Verso Kit (Thermo Scientific). qPCR was performed using the SYBR Green PCR
Master Mix Kit (Applied Biosystems) in a 7500 FAST Real-Time PCR thermocycler with
v2.0.5 software (Applied Biosystems). The following sequences of qPCR primers were used: […]
as §14
18S For: […], 18S Rev: […]. The
c-MYC mRNA fold change was calculated using a 2–ΔΔCt method and expressed in relation
to the 18S reference gene. The qPCR graph shown represents the mean ± SD of 3 biological

H3K27Ac in HCT116 cells = test: H3K27 acetylation in HCT116 cells (Western blot); assay type: cell-based, human; conditions: HCT116, 10 μM
Description: as §7, §8, §9, §10, §11, §12, §13, §14, §15

c-Myc in HCT116 cells = test: c-Myc protein level in HCT116 cells (Western blot); assay type: cell-based, human; conditions: HCT116, 10 μM, 6-24 h

Kd (CREBBP bromodomain [1]): 200 nM
binding to the other bromodomains of the panel (BROMOscan) [2]: no binding
BRD4(1) Kd (ITC) (BRD4(1) [3]): n.b. and n.b.^c
binding to BRD4(1) by ITC (in words) (BRD4(1) [3]): unable to detect binding
BRD4(1) Kd (ITC) (BRD4(1) [3]; csv supplement): n.b.
Kd (BRD4(1) [4]): 10300 ± 1890 nM
Kd (CREBBP bromodomain [5]): 102 ± 10 nM
selectivity for CREBBP versus BRD4(1) (CREBBP bromodomain [5]; BRD4(1) Kd from NMR): > 100 fold
LLE (A – B) (CREBBP bromodomain [5]; CREBBP pKd or pIC50 (A) minus cLogD pH7.4 (B)): 1.92
CREBBP pKd (CREBBP bromodomain [5]; ITC): 7.0
CREBBP / BRD4(1) selectivity (CREBBP bromodomain [5]; Table 2, BRD4(1) Kd from ITC and NMR): 101
LE (CREBBP bromodomain [5]; from CREBBP pKd or pIC50): 0.33
Kd (EP300 bromodomain): 240 nM and 230 nM
SMILES: COc1ccc2c(c1)N(CCC/C=C/c1cccc3c1N[C@H](C)CC(=O)N3)CCC2 [Compound 2, (R,E)-6-(5-(7-Methoxy-3,4-dihydroquinolin-1(2H)-yl)pent-1-en-1-yl)-4-methyl-1,3,4,5-tetrahydro-2H-benzo[b][1,4]diazepin-2-one]
HIF-1α level in hypoxia (HIF-1α in HCT116 cells): stabilization of HIF-1α above the level observed in hypoxia alone
H3K18Ac level (H3K18Ac in HCT116 cells): decrease
H3K18Ac level relative to t = 0 (H3K18Ac in HCT116 cells; 6 h): ~30 % of t = 0
H3K18Ac level relative to t = 0 (H3K18Ac in HCT116 cells; 24 h): ~70 % of t = 0
c-Myc mRNA level [6]: effects were also observed on c-Myc mRNA
H3K27Ac level (H3K27Ac in HCT116 cells): decrease
H3K27Ac level relative to t = 0 (H3K27Ac in HCT116 cells; 6 h): ~30 % of t = 0
H3K27Ac level relative to t = 0 (H3K27Ac in HCT116 cells; 24 h): ~70 % of t = 0
c-Myc expression (c-Myc in HCT116 cells): reduces expression of c-Myc
